In PMC10064330, “Reversible Dual-Covalent Molecular Locking of the 14-3-3/ERRγ Protein–Protein Interaction as a Molecular Glue Drug Discovery Approach” (Journal of the American Chemical Society, 2023):
Square brackets hold non-standard residues; d marks the D form. Peptide text beside a SMILES is read from it. pS = N[C@@H](COP(=O)(O)O)C(=O)O

What was measured:
14-3-3γ = biological target: T1, 14-3-3γ (Homo sapiens, UniProt P61981); experiment: FA binding of client phosphopeptides to 14-3-3γ (binary complex); conditions: no stabilizer (DMSO); read-out: KD of binary 14-3-3γ/peptide complex
T1 construct: made in house; host or cells: E. coli NiCo21 (DE3)
T1 sequence (P61981 1-247): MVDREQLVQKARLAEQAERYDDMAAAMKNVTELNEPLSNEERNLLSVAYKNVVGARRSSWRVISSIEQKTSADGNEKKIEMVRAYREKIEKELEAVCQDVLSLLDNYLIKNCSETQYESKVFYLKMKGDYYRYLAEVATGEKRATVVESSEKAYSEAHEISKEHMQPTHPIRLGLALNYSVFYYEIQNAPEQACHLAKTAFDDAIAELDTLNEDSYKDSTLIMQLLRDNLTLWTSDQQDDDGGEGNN

14-3-3γ/ERRγ complex = biological target: T2, 14-3-3γ/ERRγ complex (Homo sapiens, UniProt P61981+P62508); experiment: Fluorescence anisotropy (FA): 14-3-3γ titration to fluorescein-ERRγ phosphopeptide with 100 μM compound; format: binding; conditions: for stabilization factor SF100, Replicate 1 (Table S2) / stabilization factor SF100, Replicate 2 (Table S2) / stabilization factor SF100, Replicate 3 (Table S2) / stabilization factor SF100, Average (Table S2): KD DMSO control / apparent KD with 100 μM compound, 24 h; for stabilization factor SF100, Average (Table S2): average of three experiments
T2 construct: made in house; host or cells: E. coli NiCo21 (DE3)
Description: The stabilization of the ERRγ/14-3-3γ complex by the molecular locks was assessed using a fluorescence anisotropy (FA) assay where 14-3-3γ was titrated into a fluorescently labeled ERRγ phosphopeptide in the absence or presence of a 100 μM molecular lock (Figure 2a,b); this compound concentration was selected based on a FA compound titration assay (Figure S1).
Experimental Section Biophysical Assays
14-3-3γ protein expression (FA, TSA, MS assays)
A pPROEX HTb expression vector encoding the human 14-3-3 protein gamma (14-3-3γ) with a N-terminal his6-tag was transformed by heat shock into NiCo21 (DE3) competent cells. Single colonies were cultured in 50 mL LB medium (100 µg/mL ampicillin). After overnight incubation at 37 °C, cultures were transferred to 2 L TB media (100 µg/mL ampicillin, 1 mM MgCl2) and incubated at 37 °C until an OD600 nm of 0.8 -1.2 was reached. Protein expression was then induced with 0.4 mM isopropyl-β-d-thiogalactoside (IPTG), and cultures were incubated overnight at 18 °C. Cells were harvested by centrifugation (8600 rpm, 20 minu tes, 4 °C) and resuspended in lysis buffer (50 mM Hepes, pH 8.0, 300 mM NaCl, 12.5 mM imidazole, 5 mM MgCl2, 2 mM βME) containing cOmplete™ EDTA-free Protease Inhibitor Cocktail tablets (1 tablet/100 ml lysate) and benzonase ( 5 µl/100 ml). After lysis using a C3 Emulsiflex-C3 homogenizer (Avestin), the cell lysate was cleared by centrifugation (20000 rpm, 30 minutes, 4 °C) and purified using Ni2+-affinity chromatography (Ni -NTA superflow cartridges, Qiagen). Typically two 5 mL columns (flow 5 mL/min) were use d for a 2 L culture in which the lysate was loaded on the column , washed with 10 CV wash buffer (50 mM Hepes, pH 8.0, 300 mM NaCl, 25 mM imidazole, 2 mM βME), and eluted in several fractions (2-4 CV) of elution buffer (50 mM Hepes, pH 8.0, 300 mM NaCl, 250 mM imidazole, 2 mM βME). Fractions containing the 14 -3-3 protein were combined and dialyzed into 25 mM HEPES pH 8.0, 100 mM NaCl, 10 mM MgCl2, 500 µM TCEP. Finally, the protein was concentrated to ∼60 mg/mL, analyzed Q-Tof LC/MS, and aliquots were flash-frozen for storage at −80 °C.
14-3-3σΔc C38N protein expression (Crystallography)
A pPROEX HTb expression vector encoding the human 14-3-3 protein sigma truncated after T231 (14-3-3σΔc), mutated C38N, and containing a N-terminal his6-tag was transformed by heat shock into NiCo21 (DE3) competent cells. Single colonies were cultured in 50 mL LB medium (100 µg/mL ampicillin). After overnight incubation at 37 °C, cultures were transferred to 2 L TB media (100 µg/mL ampicillin, 1 mM MgCl2) and incubated at 37 °C until an OD600 nm of 0.8-1.2 was reached. Protein expression was then induced with 0.4 mM isopropyl-β-d-thiogalactoside (IPTG), and cultures were incubated overnight at 18 °C. Cells were harvested by centrifugation (8600 rpm, 20 minutes, 4 °C) and resuspended in lysis buffer (50 mM Hepes, pH 8.0, 300 mM NaCl, 12.5 mM imidazole, 5 mM MgCl2, 2 mM βME) containing cOmplete™ EDTA-free Protease Inhibitor Cocktail tablets (1 tablet/ 100 ml lysate) and benzonase (5 µl/ 100 ml). After lysis using a C3 Emulsiflex-C3 homogenizer (Avestin), […]
chromatography (Ni-NTA superflow cartridges, Qiagen). Typically two 5 mL columns were used for a 2 L culture in which the lysate was loaded on the column , washed with 10 CV wash buffer (50 mM Hepes, pH 8.0, 300 mM NaCl, 25 mM imidazole, 2 mM βME), and eluted with several fractions (2 -4 CV) of elution buffer (50 mM Hepes, pH 8.0, 300 mM NaCl, 250 mM imidazole, 2 mM βME). Fractions containing the 14-3-3 protein were combined and dialyzed into 25 mM HEPES pH 8.0, 200 mM NaCl, 10 mM MgCl 2, 2 mM βME. In addition, 1 mg TEV was added for each 100 mg purified protein to remove the purification tag. The cleaved sample was then again loaded on a 10 mL Ni-NTA column to separate the cleaved product from the expression tag and residual uncleaved protein. The flowthrough was loaded on a Superdex 75 pg 16/60 size exc lusion column (GE Life Sciences) using […]

Structure (SMILES)	Kd (14-3-3γ) [µM]	stabilization factor SF100, Replicate 1 (Table S2) (14-3-3γ/ERRγ complex)	stabilization factor SF100, Replicate 2 (Table S2) (14-3-3γ/ERRγ complex)	stabilization factor SF100, Replicate 3 (Table S2) (14-3-3γ/ERRγ complex)	stabilization factor SF100, Average (Table S2) (14-3-3γ/ERRγ complex)	stabilization of 14-3-3γ/ERRγ complex (SF100, fold) (14-3-3γ/ERRγ complex; 100 μM compound, 24 h incubation)
CC(=O)N[C@@H](CCCCN)C(=O)N[C@@H](CCCNC(=N)N)C(=O)N[C@@H](CCCNC(=N)N)C(=O)N[C@@H](CCCNC(=N)N)C(=O)N[C@@H](CCCCN)C(=O)N[C@@H](COP(=O)(O)O)C(=O)N[C@@H](CS)C(=O)N[C@@H](CCC(N)=O)C(=O)N[C@@H](C)C(N)=O [ERRγ] (Ac-KRRRK[pS]CQA-NH2; N-terminus and C-terminus assumed)	6.5 ± 0.9					
CN(C)CCSSCCN(C)C(=O)c1ccc(C=O)cc1 [compound 4]		13.0	8.6	9.0	10.2	
CN(C)CCSSCCN(C)C(=O)c1ccc(C=O)c(Br)c1 [compound 6]		22.3	14.3	16.9	17.8	
CN(C)CCSSCCN(C)S(=O)(=O)c1ccc(C=O)cc1 [compound 7]		13.4	11.4	8.6	11.2	
CN(C)CCSSCCN(C)C(=O)c1cccc(C=O)c1 [compound 8]		25.5	17.3	19.0	20.6	
CN(C)CCSSCCN(C)C(=O)c1ccc(F)c(C=O)c1 [compound 9]		8.5	5.4	7.9	7.3	least active
